Test results reported in patent US7196110B2, “N-substituted tricyclic 3-aminopyrazoles as inhibitors for the treatment of cell proliferative disorders” (Janssen Phamaceutica N.V., priority 2002, dated 2007).
Like-named read-outs stand apart in the source and are kept apart here.

Experiments:
H460 (lung) = experiment: Anti-cell proliferation in tumor cells (14C-thymidine incorporation), H460; type: cell-based
Protocol: (§1) The effect of compounds of the invention on cell proliferation in various tumor cells was tested based on incorporation of ^14C-thymidine into DNA of cells.
(§2) Similar to those described above in 3a, except that different cells, cell growth medium, and growth supplements were used. Human tumor cell lines derived from various human tissue origins (LoVo from colon, H460 from lung, T47D from breast, PC3 from prostate, A375 from melanoma, AsPC1 from pancreas) were obtained from the American Type Culture Collection (ATCC) and cultured under specified conditions required for each cell type, as provided by ATCC. Complete medium was obtained from Cellgro: Iscove's medium with 10% Fetal Bovine Serium (FBS) (Mediatech, Inc., Herndon, Va. 20171, Cat. No. 10-016-CV).
(§3) Tumor cells were seeded at approx. 3000–8000 cells per well in a volume of 100 μl of complete medium. Cells were grown for 24 hours in complete medium, and 1 μl of test compound was serially diluted in 100% DMSO and added to each well. For maximum growth control wells, only 1 μl of 100% DMSO was added. After 24 hours incubation, 20 μl of ^14C-thymidine master mix was added to each well and the ^14C-thymidine master mix was pepared according to the following regimen:
(§4) Cells were incubated for an additional 24 hours at 37° C. in medium containing test compound and ^14C-thymidine. Then, the reaction mixture was discarded and the plate was washed 2 times each with 200 μl PBS. Subsequently, each well on the plate was filled with 200 μl of PBS. The top of the plate was sealed with transparent plate sealer and white plate backing sealers were applied to the bottom of plates. The retained ^14C inside each well was measured using a Packard TopCount.
(§5) In order to test the potency of inhibition of the present compound, IC50 of an individual compound on the inhibition of tumor cell line proliferation was measured using the above procedure. As used herein, said IC50 refers to the concentration of the test compound at which the amount of tumor cell proliferation is reduced by one-half as compared to the maximum growth control wells without the compound.

LoVo (colon) = experiment: Anti-cell proliferation in tumor cells (14C-thymidine incorporation), LoVo; type: cell-based; settings: Homo sapiens, read-out: IC50 on cell proliferation, LoVo
Protocol: as §1, §2, §3, §4, §5

AsPC1 (pancreas) = experiment: Anti-cell proliferation in tumor cells (14C-thymidine incorporation), AsPC1; type: cell-based
Protocol: as §1, §2, §3, §4, §5

T47D (breast) = experiment: Anti-cell proliferation in tumor cells (14C-thymidine incorporation), T47D; type: cell-based; settings: Homo sapiens, read-out: IC50 on cell proliferation, T47D
Protocol: as §1, §2, §3, §4, §5

[1] = target: T1, PDGF-receptor beta enzyme comprising the tyrosine kinase domain (Homo sapiens, UniProt P09619); experiment: Inhibition of PDGF-receptor kinase activity (cell-free, PLC1 peptide, 33P Flashplate); type: biochemical; settings: PDGF-R kinase activity; for inhibition at 10 µM: compound at 10 uM, read-out: Percent Inhibition @ 10 uM; for IC50: read-out: IC50
T1 construct: from amino acid 545 to 1106 of GenBank Access NO: AAA36427
T1 sequence (P09619 545-1106): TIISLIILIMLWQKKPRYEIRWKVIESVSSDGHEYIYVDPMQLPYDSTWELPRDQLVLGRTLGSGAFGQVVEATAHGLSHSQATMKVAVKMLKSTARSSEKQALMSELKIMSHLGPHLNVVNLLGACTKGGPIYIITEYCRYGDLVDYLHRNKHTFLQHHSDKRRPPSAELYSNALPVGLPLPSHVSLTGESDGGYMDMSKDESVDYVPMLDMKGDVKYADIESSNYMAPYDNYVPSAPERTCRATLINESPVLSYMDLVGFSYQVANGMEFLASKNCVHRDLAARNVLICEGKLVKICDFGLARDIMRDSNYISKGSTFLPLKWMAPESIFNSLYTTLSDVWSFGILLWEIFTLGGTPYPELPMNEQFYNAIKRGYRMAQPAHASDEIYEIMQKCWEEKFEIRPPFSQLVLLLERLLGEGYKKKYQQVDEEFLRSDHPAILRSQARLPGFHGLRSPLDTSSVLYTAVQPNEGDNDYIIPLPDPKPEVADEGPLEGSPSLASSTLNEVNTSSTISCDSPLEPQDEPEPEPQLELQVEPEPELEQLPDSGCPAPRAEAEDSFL
In short: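 The IC50 is the inhibitor level halving kinase activity relative to inhibitor-free wells, measured as 33P captured on a streptavidin-bound biotin-PLC1 peptide. The reaction ran 60 min at 30 °C in pH 8 Tris buffer with 1 mM DTT, 5 μM ATP and the 545–1106 kinase-domain enzyme.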

A375 (melanoma) = experiment: Anti-cell proliferation in tumor cells (14C-thymidine incorporation), A375; type: cell-based
Protocol: as §1, §2, §3, §4, §5

PC3 (prostate) = experiment: Anti-cell proliferation in tumor cells (14C-thymidine incorporation), PC3; type: cell-based
Protocol: as §1, §2, §3, §4, §5

[2] = Homo sapiens, NCI-H460; read-out: IC50 on cell proliferation, H460
[3] = Homo sapiens, ASPC1; read-out: IC50 on cell proliferation, AsPC1
[4] = Homo sapiens, A-375; read-out: IC50 on cell proliferation, A375
[5] = Homo sapiens, PC-3; read-out: IC50 on cell proliferation, PC3

IC50 (H460 (lung); Homo sapiens, NCI-H460, read-out: IC50 on cell proliferation, H460) [nM] | IC50 (AsPC1 (pancreas); Homo sapiens, ASPC1, read-out: IC50 on cell proliferation, AsPC1) [nM] | IC50 (A375 (melanoma); Homo sapiens, A-375, read-out: IC50 on cell proliferation, A375) [nM] | IC50 (PC3 (prostate); Homo sapiens, PC-3, read-out: IC50 on cell proliferation, PC3) [nM] | SMILES | IC50 (H460 (lung); [2]) [nM] | IC50 (LoVo (colon)) [nM] | IC50 (AsPC1 (pancreas); [3]) [nM] | IC50 (T47D (breast)) [nM] | inhibition at 10 µM [1] [%] | IC50 [1] [nM] | IC50 (A375 (melanoma); [4]) [nM] | IC50 (PC3 (prostate); [5]) [nM]
– | – | – | – | COC(=O)c1cccc(Nc2[nH]nc3c2Cc2cc(OC)c(OC)cc2-3)c1 [Compound 11, 3-(6,7-Dimethoxy-2,4-dihydro-indeno[1,2-c]pyrazol-3-ylamino)-benzoic acid methyl ester] | 33 | 2 | 30 | 7 | 97 | 15.7 | 5 | 14
– | – | – | – | COc1cc2c(cc1OC)-c1n[nH]c(Nc3ccccc3F)c1C2 [Compound 12, (6,7-Dimethoxy-2,4-dihydro-indeno[1,2-c]pyrazol-3-yl)-(2-fluoro-phenyl)-amine] | 3 | 11 | 77 | 31 | 76 | 56 | 11 | 13
10 | 592 | 7 | 20 | COc1cc2c(cc1OC)-c1n[nH]c(Nc3cccc(F)c3)c1C2 [Compound 14, (3-Fluoro-phenyl)-(6,7-dimethoxy-2,4-dihydro-indeno[1,2-c]pyrazol-3-yl)-amine] | – | 11 | – | 32 | 108 | 1.7 | – | –
– | – | – | – | Cc1ccc2c(c1)-c1n[nH]c(Nc3ccccc3)c1C2 [Compound 22, (7-Methyl-2,4-dihydro-indeno[1,2-c]pyrazol-3-yl)-phenyl-amine] | 9270 | 13400 | > 10000 | 381 | 96 | 45 | 11600 | 49500
– | – | – | – | COc1cc2c(cc1OC)-c1n[nH]c(Nc3cccnc3)c1C2 [Compound 30, (6,7-Dimethoxy-2,4-dihydro-indeno[1,2-c]pyrazol-3-yl)-pyridin-3-yl-amine] | 290 | 423 | > 10000 | 8200 | 107 | 16 | 507 | 175
– | – | – | – | COc1ccc2c(c1)-c1n[nH]c(Nc3ccccc3)c1C2 [Compound 39, (7-Methoxy-2,4-dihydro-indeno[1,2-c]pyrazol-3-yl)-phenyl-amine] | – | – | > 10000 | > 10000 | 92 | – | > 50000 | > 10000
– | – | – | – | COc1cc2c(cc1OC)-c1n[nH]c(NCc3ccccc3)c1C2 [Compound 63, Benzyl-(6,7-dimethoxy-2,4-dihydro-indeno[1,2-c]pyrazol-3-yl)-amine] | 3670 | 2400 | 10300 | 2600 | 94 | 191 | 2840 | 6120
– | – | – | – | COc1cccc(Nc2[nH]nc3c2Cc2cc4c(cc2-3)OCO4)c1 [Compound 97, (2,9-Dihydro-5,7-dioxa-2,3-diaza-cyclopenta[a]-s-indacen-1-yl)-(3-methoxy-phenyl)-amine] | 424 | 225 | 5670 | 622 | 91 | 54 | 362 | 1680
– | – | – | – | CN1CCN(c2ccc3c(c2)Cc2c-3n[nH]c2Nc2cccc(Br)c2)CC1 [Compound 122, (3-Bromo-phenyl)-[6-(4-methyl-piperazin-1-yl)-2,4-dihydro-indeno[1,2-c]pyrazol-3-yl]-amine] | 14300 | 3840 | > 10000 | 10500 | 70 | 16.2 | 14400 | 6340
– | – | – | – | COC(=O)c1cccc(Nc2[nH]nc3c2Cc2cc(OCCCN4CCCC4)c(OC)cc2-3)c1 [Compound 157, 3-[7-Methoxy-6-(3-pyrrolidin-1-yl-propoxy)-2,4-dihydro-indeno[1,2-c]pyrazol-3-ylamino]-benzoic acid methyl ester] | 3590 | 2140 | > 10000 | 1900 | 85 | 7 | 1230 | 3130
– | – | – | – | COc1cc2c(cc1OC)-c1n[nH]c(NCc3cc(Cl)ccc3Cl)c1C2 [Compound 330, (2,5-Dichloro-benzyl)-(6,7-dimethoxy-2,4-dihydro-indeno[1,2-c]pyrazol-3-yl)-amine] | 1200 | 3700 | 1550 | 355 | 100 | 16.2 | 2180 | 303
– | – | – | – | COc1cc2c(cc1OC)-c1c(c(Nc3cccc(F)c3)nn1C(=O)CO)C2 [Compound 432, 1-[3-(3-Fluoro-phenylamino)-6,7-dimethoxy-4H-indeno[1,2-c]pyrazol-1-yl]-2-hydroxy-ethanone] | – | 35 | 40 | 6 | 95.5 | 38 | 2 | 12
